The record followed here is patent US10870647B2, “Imidazopyridine derivative, method for preparing same, and pharmaceutical composition containing same as active ingredient for preventing or treating cancer” (DAEGU-GYEONGBUK MEDICAL INNOVATION FOUNDATION, priority 2016, dated 2020).

Common to all, as to experiment: Kinase selectivity, scanMAX Kinase assay panel (DiscoverX), % control at 1 uM
Holding throughout (format): binding

Test [1] has as its target T1, scanMAX Kinase assay panel (Homo sapiens, UniProt P54760).
T1 construct: purchased DiscoverX
T1 sequence (P54760 16-987): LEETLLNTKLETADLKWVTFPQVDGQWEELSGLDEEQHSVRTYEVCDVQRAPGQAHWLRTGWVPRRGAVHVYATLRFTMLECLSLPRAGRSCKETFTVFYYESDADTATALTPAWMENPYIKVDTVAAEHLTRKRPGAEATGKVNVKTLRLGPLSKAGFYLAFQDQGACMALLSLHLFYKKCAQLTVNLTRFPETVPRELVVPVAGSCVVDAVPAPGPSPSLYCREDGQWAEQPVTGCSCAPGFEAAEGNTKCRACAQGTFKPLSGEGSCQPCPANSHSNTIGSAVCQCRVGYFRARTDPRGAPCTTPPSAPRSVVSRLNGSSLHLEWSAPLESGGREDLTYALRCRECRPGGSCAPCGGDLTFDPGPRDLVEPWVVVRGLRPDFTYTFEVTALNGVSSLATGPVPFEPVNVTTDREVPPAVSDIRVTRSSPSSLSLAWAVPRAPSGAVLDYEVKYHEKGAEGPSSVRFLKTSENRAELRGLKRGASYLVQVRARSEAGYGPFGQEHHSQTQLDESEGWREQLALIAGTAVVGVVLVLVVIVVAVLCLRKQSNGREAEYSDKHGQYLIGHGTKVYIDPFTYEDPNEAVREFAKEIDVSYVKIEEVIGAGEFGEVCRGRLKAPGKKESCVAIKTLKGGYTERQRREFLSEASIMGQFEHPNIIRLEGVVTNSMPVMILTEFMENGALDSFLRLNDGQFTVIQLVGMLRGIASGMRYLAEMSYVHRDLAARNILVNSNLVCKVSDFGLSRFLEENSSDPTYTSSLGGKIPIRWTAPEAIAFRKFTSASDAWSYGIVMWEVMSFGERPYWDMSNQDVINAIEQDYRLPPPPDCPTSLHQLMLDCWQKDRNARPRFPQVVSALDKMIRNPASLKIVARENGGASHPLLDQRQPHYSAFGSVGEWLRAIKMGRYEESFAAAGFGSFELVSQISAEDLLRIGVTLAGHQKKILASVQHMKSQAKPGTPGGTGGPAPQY
The settings on record: EPHB4; 1 uM; read-out: Percent Control (%). In outline: (§1)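 Each kinase was first exposed to the test compound at 1 uM in DMSO. Signal was then normalised to positive and negative controls to give % control. Finally, any enzyme showing <35% control was judged inhibited.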

Test [2] deals with T2, scanMAX Kinase assay panel (Homo sapiens, UniProt O14757).
T2 construct: purchased DiscoverX
T2 sequence (O14757 1-476): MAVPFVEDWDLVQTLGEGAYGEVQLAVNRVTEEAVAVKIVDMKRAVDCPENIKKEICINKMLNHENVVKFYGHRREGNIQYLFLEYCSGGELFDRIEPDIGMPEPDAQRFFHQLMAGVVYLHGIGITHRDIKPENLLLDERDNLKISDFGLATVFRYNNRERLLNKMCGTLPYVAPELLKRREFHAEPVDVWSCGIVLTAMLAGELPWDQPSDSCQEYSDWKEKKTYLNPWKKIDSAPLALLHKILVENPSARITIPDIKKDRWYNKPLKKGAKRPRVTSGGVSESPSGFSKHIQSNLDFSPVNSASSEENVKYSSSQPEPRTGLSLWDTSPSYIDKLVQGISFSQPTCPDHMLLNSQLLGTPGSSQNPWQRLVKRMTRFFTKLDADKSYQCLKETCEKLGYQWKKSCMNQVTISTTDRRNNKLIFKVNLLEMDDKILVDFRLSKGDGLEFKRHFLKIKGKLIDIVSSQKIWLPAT
The settings on record: CHEK1; 1 uM; read-out: Percent Control (%). In outline:
as §1

Test [3] has as its target T3, scanMAX Kinase assay panel (Homo sapiens, UniProt P36888, R834Q).
T3 construct: purchased DiscoverX
T3 sequence (P36888 27-993 R834Q): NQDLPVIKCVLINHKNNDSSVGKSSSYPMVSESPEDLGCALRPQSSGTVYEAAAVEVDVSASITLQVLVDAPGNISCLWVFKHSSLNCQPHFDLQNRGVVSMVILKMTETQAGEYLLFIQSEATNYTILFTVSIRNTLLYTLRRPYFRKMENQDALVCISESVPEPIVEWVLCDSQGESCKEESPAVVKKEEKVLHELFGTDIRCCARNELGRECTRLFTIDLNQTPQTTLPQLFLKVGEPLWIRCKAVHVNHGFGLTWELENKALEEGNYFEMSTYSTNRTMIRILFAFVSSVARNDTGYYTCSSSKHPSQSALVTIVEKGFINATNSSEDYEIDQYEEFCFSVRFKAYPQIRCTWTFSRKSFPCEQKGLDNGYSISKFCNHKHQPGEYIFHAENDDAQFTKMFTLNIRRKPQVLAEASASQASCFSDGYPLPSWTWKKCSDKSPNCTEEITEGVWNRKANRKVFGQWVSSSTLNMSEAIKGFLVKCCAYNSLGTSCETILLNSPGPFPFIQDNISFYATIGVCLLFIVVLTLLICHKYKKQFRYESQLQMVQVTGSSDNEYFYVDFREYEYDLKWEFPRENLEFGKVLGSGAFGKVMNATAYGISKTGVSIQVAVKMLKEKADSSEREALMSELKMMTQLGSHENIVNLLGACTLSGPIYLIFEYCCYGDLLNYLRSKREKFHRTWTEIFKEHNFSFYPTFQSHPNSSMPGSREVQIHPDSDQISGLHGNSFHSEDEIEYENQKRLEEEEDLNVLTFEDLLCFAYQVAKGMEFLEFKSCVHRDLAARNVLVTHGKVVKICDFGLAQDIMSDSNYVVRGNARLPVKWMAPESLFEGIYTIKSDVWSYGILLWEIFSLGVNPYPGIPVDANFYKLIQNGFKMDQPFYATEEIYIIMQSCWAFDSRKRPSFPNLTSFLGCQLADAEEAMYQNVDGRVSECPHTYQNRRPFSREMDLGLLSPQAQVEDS
The settings on record: FLT3 (R834Q); 1 uM; read-out: Percent Control (%). In outline: as §1

The target in test [4] is T4, scanMAX Kinase assay panel (Homo sapiens, UniProt P48736).
T4 construct: purchased DiscoverX
T4 sequence (P48736 whole entry): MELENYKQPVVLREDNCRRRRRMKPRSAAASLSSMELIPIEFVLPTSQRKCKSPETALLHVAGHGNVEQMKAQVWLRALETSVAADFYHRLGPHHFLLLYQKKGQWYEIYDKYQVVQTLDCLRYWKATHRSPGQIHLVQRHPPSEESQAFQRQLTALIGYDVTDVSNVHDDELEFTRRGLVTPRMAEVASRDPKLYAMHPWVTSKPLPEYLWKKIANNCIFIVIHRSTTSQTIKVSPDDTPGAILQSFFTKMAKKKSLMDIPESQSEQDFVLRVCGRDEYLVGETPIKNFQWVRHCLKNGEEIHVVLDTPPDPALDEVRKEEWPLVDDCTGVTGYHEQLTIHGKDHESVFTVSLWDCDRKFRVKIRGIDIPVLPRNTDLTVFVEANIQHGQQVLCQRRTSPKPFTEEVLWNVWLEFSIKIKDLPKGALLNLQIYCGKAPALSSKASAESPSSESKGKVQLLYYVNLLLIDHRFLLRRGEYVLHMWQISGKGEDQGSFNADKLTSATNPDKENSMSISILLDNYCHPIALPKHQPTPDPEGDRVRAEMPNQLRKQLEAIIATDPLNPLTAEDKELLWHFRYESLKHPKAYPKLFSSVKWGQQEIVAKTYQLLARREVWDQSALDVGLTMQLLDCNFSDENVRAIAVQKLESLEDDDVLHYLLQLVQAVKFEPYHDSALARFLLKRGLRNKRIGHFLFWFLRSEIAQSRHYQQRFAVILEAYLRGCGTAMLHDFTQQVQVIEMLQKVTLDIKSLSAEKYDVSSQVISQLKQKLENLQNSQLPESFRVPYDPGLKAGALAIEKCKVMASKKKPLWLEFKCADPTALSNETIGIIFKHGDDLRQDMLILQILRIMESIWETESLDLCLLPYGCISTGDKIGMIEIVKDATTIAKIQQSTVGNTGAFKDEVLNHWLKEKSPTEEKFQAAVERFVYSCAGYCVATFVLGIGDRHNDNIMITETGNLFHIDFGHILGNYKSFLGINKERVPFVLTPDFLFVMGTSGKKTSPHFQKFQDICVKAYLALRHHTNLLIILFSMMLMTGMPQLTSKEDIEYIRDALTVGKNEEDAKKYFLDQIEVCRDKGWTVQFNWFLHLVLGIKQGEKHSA
The following applies: PIK3CG; 1 uM; read-out: Percent Control (%). In outline:
as §1

Test [5] has as its target T5, scanMAX Kinase assay panel (Homo sapiens, UniProt P10721, V559D).
T5 construct: purchased DiscoverX
The settings on record: KIT (V559D); 1 uM; read-out: Percent Control (%). In outline:
as §1

T5 sequence (P10721 26-976 V559D): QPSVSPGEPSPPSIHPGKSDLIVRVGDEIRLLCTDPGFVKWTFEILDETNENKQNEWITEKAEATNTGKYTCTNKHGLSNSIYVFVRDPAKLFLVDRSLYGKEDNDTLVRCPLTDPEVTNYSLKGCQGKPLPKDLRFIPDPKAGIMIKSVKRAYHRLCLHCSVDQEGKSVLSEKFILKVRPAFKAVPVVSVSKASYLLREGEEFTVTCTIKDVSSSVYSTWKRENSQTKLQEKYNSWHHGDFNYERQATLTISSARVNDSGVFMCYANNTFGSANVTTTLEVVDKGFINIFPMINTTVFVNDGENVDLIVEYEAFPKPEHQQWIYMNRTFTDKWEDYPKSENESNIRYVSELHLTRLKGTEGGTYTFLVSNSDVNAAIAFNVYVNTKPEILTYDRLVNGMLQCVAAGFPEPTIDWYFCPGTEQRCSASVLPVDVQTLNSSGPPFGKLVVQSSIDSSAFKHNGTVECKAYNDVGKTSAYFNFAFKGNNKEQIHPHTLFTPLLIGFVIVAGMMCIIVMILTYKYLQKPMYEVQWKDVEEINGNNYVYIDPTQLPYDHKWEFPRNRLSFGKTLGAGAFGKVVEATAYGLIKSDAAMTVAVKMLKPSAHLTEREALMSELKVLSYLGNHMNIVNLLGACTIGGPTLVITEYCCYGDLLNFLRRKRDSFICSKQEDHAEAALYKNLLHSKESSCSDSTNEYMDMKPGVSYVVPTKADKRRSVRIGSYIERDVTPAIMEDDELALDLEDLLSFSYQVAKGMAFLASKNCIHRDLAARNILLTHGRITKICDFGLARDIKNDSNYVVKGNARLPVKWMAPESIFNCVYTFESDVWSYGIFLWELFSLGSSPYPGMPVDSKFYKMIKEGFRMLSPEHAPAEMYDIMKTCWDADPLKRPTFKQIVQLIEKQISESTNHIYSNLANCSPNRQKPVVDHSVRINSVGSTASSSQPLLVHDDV

Take `Cc1ccc(C(=O)Nc2ccc(CN3CCN(C)CC3)c(C(F)(F)F)c2)cc1C#Cc1cnc2c(Nc3cnn(C)c3)cccn12` [Example 1, 4-methyl-3-((8-((1-methyl-1H-pyrazol-4-yl)amino)imidazo[1,2-a]pyridin-3-yl)ethynyl)-N-(4-((4-methylpiperazin-1-yl)methyl)-3-(trifluoromethyl)phenyl)benzamide]: the remaining binding at 1 µM turned out to be 3% in test [1]; 90% in test [2]; 3% in test [3]; 100% in test [4]; 0% in test [5].
As to `Cc1cn(-c2cc(NC(=O)c3ccc(C)c(C#Cc4cnc5c(Nc6cnn(C)c6)cccn45)c3)cc(C(F)(F)F)c2)cn1` [Example 12, 4-methyl-N-(3-(4-methyl-1H-imidazol-1-yl)-5-(trifluoromethyl)phenyl)-3-((8-((1-methyl-1H-pyrazol-4-yl)amino)imidazo[1,2-a]pyridin-3-yl)ethynyl)benzamide], the remaining binding at 1 µM in test [1] turned out to be 41%; in test [2], 100%; in test [3], 62%; in test [4], 100%; in test [5] it was 1%.
`Cc1ccc(NC(=O)C2(C(=O)Nc3ccc(F)cc3)CC2)cc1C#Cc1cnc2c(Nc3cnn(C(C)C)c3)cccn12` [Example 78]: the remaining binding at 1 µM in test [1] worked out at 100%; in test [2] it was 98%; in test [3], 100%; in test [4] it was 100%; in test [5], 0%.
